# Assay results reported in publication PMC10427391, “Identification of Cytochrome P450 2E1 as a Novel Target in Glioma and Development of Its Inhibitor as an Anti‐Tumor Agent” (Advanced Science, 2023).
# Experiments:
# intracerebral glioma = experiment: Kaplan–Meier survival of mice with intracerebral glioma; conditions: Q11 30 mg kg^−1 vs saline, P log-rank = 0.0017
# [1] = test system: glioma induced by U251‐LUC cells; experiment: Intracranial orthotopic glioma model induced by U251-LUC cells
# CYP2E1 [2] = target: T1, CYP2E1 (Rattus norvegicus, UniProt P05182); experiment: In vivo inhibition of CYP2E1 activity by metabolism of diethylnitrosamine (DEN), self-controlled cross-administration; set-up: species or system rats; conditions: DEN 50 mg kg^−1 i.p.
# T1 construct: from tissue; host or cells: living rats (whole animal, endogenous enzyme)
# T1 sequence (P05182 whole entry): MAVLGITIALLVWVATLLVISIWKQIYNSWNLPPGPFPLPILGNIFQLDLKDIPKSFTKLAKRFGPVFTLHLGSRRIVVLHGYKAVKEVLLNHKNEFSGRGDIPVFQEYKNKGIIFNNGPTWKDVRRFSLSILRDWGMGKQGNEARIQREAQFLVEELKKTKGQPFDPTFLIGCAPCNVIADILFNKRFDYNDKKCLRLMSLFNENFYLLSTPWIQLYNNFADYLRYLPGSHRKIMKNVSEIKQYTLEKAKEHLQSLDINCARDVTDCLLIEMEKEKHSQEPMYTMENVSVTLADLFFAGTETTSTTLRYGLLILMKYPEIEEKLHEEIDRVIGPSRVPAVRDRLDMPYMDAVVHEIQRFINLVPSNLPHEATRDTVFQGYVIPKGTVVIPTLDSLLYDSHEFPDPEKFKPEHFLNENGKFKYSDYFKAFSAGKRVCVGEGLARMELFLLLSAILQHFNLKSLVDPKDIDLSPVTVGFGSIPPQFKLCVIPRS
# Experimental: A self‐controlled cross‐administration experiment was designed based on previous report.^[ [45] ^] In the first round of the experiment, a single intraperitoneal injection of diethylnitrosamine at 50 mg kg^−1 was given in the first week. After a 1‐week interval, the second round of the experiment was conducted, where each rat was given Q11 at 6, 30, or 150 mg kg^−1 (i.g), and then, after 5 min, an intraperitoneal injection of diethylnitrosamine at 50 mg kg^−1 was given. Collection of orbital blood was carried out at 2, 7, 15, 30 min and 1, 2, 4, 6, 9, 12, 24, 36, 48, 60 h.
# C6 = experiment: Direct effect on glioma cells (CCK-8), C6; conditions: concentrations below 100 µM
# [3] = test system: glioma induced by C6 cells; experiment: Intracranial orthotopic glioma model induced by C6 cells; conditions: SD rat, oral 30 mg kg^−1
# [4] = Long-term Q11 treatment, safety, mice; conditions: 26 weeks
# GL261 cells [5] = experiment: Direct effect on glioma cells (CCK-8), GL261; conditions: concentrations below 100 µM
# GL261 cells [6] = experiment: Apoptosis (Annexin V-FITC/PI) of GL261 cells in co-culture with microglia/macrophages
# GL261 cells [7] = experiment: Cell cycle of GL261 cells in co-culture with primary microglia
# GBM = experiment: Intracranial glioma models overall (rats, mice, nude mice)
# HMC‐3 cells = experiment: HMC-3 cells transfected with CYP2E1 plasmids: PPAR-γ and cytokines; conditions: HMC-3 transfected with CYP2E1 plasmids
# [8] = Central inhibitory effect; conditions: clomethiazole: at a dose that inhibited CYP2E1
# [9] = test system: glioma induced by GL261 cells; experiment: Intracranial orthotopic glioma model induced by GL261 cells; conditions: C57BL/6 mouse
# CYP2A6 = target: T2, CYP2A6 (Homo sapiens, UniProt P11509); experiment: Selectivity, microsomal incubation, CYP2A6 (coumarin as substrate); assay type: biochemical
# T2 construct: A 100 µL microsomal incubation system; from tissue
# T2 sequence (P11509 1-494): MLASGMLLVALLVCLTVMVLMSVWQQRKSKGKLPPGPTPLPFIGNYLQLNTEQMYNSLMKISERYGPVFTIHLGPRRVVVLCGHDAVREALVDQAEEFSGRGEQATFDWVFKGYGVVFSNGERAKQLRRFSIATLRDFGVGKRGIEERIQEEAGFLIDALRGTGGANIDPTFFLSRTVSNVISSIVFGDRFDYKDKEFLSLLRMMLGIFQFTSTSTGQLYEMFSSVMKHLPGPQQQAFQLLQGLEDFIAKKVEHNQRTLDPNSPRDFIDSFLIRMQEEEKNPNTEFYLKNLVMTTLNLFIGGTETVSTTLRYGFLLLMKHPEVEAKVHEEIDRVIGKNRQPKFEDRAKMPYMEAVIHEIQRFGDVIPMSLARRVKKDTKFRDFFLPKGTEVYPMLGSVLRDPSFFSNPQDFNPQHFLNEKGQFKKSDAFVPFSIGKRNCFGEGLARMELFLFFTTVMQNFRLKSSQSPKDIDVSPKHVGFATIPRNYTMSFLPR
# Experimental: (§1) A 100 µL microsomal incubation system^[ [44] ^] contained probe drugs for each CYP with different series of concentrations, Q11, phosphate buffer, EDTA, magnesium chloride, and substrates (phenacetin for CYP1A2, coumarin for CYP2A6, bupropion for CYP2B6, paclitaxel for CYP2C8, tolbutamide for CYP2C9, omeprazole for CYP2C19, dextromethorphan for CYP2D6, chlorzoxazone for CYP2E1, midazolam for CYP3A4/5). HPLC‐UV and HPLC‐FLD were used to measure the number of metabolites.
# [10] = Long-term Q11 treatment, safety, rats; conditions: 12 weeks
# primary microglia = experiment: Primary microglia induced by IL-4 and IL-13: polarization markers and signaling (western blot, immunofluorescence)
# Experimental: Tissues and cells were harvested and lysed with RIPA buffer. The protein concentration was determined using a BCA kit. Samples were separated on 10% SDS‐PAGE gels and blotted onto nitrocellulose membranes (Millipore).The membranes were incubated with primary antibodies at 4 °C overnight, washed three times with TBST, and then incubated with HRP‐conjugated anti‐mouse IgG or anti‐rabbit IgG diluted in TBST containing 1% non‐fat milk at room temperature for 1 h. After final washing with TBST, the membranes were developed by using ECL.
# CYP2E1 [11] = target: CYP2E1 (Homo sapiens, UniProt P05181); experiment: In vitro inhibition of CYP2E1 (chlorzoxazone as substrate); assay type: biochemical; set-up: A 100 µL microsomal incubation system; from tissue
# CYP2E1 (Homo sapiens, UniProt P05181), sequence (P05181 whole entry): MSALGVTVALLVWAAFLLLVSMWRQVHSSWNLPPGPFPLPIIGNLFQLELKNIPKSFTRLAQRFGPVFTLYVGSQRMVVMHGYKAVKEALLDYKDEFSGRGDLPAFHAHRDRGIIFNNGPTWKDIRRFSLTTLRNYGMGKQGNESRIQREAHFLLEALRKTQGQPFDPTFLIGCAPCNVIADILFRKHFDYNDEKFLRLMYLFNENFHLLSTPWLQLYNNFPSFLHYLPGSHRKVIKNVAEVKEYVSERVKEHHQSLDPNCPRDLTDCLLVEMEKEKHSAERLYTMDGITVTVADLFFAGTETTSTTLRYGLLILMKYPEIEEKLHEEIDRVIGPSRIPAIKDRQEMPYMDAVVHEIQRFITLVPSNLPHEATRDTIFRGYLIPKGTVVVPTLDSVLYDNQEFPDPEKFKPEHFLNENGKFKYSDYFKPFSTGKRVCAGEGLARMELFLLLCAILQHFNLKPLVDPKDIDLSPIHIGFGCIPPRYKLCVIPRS
# Experimental: Chlorzoxazone with a concentration of 62.5 µM and inhibitors with different gradient concentrations were selected to plot the inhibition of chlorzoxazone and to calculate the IC50 of the inhibitor. A Lineweaver–Burk curve was used to determine the mechanism and calculate the K i of inhibitors of CYP2E1.
# as §1
# [12] = endpoint day 36 after transplantation
# [13] = IL-4 and IL-13 10 ng mL^−1, 24 h
# [14] = Q11 medium- and high-dose groups vs IL-4/IL-13 group
compound,measurement,setting,value
"CC(=O)c1scnc1C [Compound Q11, 1‐(4‐methyl‐5‐thialzolyl) ethanone]",mean survival time,intracerebral glioma,32 days
same,bioluminescence in tumor sites,"[1]; day 14 after transplantation, Q11 at 10 and 30 mg kg^−1",lesser bioluminescence
same,brain weight,[1]; [12],markedly suppressed
same,tumor diameter,[1]; [12],markedly suppressed
same,tumor volume,[1]; [12],markedly suppressed
same,inhibition ratio in terms of clearance (CL) of diethylnitrosamine (DEN),CYP2E1 [2]; Q11 6 mg kg^−1 i.g.,63.98%
same,inhibition ratio in terms of clearance (CL) of diethylnitrosamine (DEN),CYP2E1 [2]; Q11 30 mg kg^−1 i.g.,79.63%
same,inhibition ratio in terms of clearance (CL) of diethylnitrosamine (DEN),CYP2E1 [2]; Q11 150 mg kg^−1 i.g.,85.42%
same,direct killing of C6 cells,C6,did not directly kill
same,"growth of tumor (brain weight, tumor diameter, tumor weight)",[3],significantly suppressed
same,adverse reactions on long-term treatment,[4],no adverse reactions
same,direct killing of GL261 cells,GL261 cells [5],did not directly kill
same,apoptosis of GL261 cells,GL261 cells [6],promoted apoptosis
same,cell cycle of GL261 cells,GL261 cells [7],arrested the cell cycle in S phase
same,tumor-induced weight loss,GBM; intracranial xenografts,obviously improved
same,inhibitory effect on glioma growth compared with TMZ,GBM; orthotopic glioma models,superior to that of TMZ
same,"changes caused by CYP2E1 overexpression (PPAR-γ, IL-4, IL-10, TGFβ up; IL-1α, IL-1β down)",HMC‐3 cells,significantly blocked the changes
same,central inhibitory effect,[8],does not show a central inhibitory effect
same,"growth of glioma (brain weight, tumor diameter, volumes)",[9],significantly inhibited
same,IC50,CYP2A6,76.2 µM
same,adverse reactions on long-term treatment,[10],no adverse reactions
same,Arg-1 (M2 marker) expression,primary microglia; [13],significantly reduced
same,iNOS (M1 marker) expression,primary microglia; [13],increased
same,p-STAT-1 and p-NF-κB,primary microglia; [14],significantly increased
same,p-STAT-3 and p-STAT-6,primary microglia; [14],significantly decreased
same,PPAR-γ expression,primary microglia; after induction by IL-4 and IL-13,significantly inhibited
same,IC50,CYP2E1 [11],1.64 µM
same,Ki,CYP2E1 [11],0.897 µM
same,type of inhibition of CYP2E1,CYP2E1 [11]; Lineweaver–Burk plot,competitive‐noncompetitive mixed‐type inhibitor
